Measured values reported in patent publication US4550116A, “Piperidine derivatives” (Fordonal, S.A., priority 1983, dated 1985).

Tests used:
[1] = system: rat hindquarters; assay: Rat hindquarter preparation, responses to high-K+ Krebs' solution; settings: for TEST A RAT HINDQUARTERS % Recovery: recovery of response at 1 h following perfusion with normal Krebs' solution, 10^-7 M; for TEST A RAT HINDQUARTERS % Inhibition: maximum percentage inhibition, 10^-7 M perfused for 20 minutes, 80 mM K+; for duration of anti-vasoconstrictor effects, compared with terfenadine and cinnarizine: in vitro, rat hindquarter preparation
Experimental: A Rat hindquarter preparation
Responses of rat hindquarters perfused at constant rate were elicited by high -K^+ (80 mM) Krebs' solution. Test compounds (10^-7 M) were perfused for 20 minutes and then compound-free Krebs' perfusion was resumed for 40 min.

[2] = system: histamine aerosol; assay: Histamine aerosol, protection of guinea-pigs; type: in vivo, guinea-pig
[3] = system: adrenaline; assay: Protection against a lethal dose of adrenaline; type: in vivo, swiss mice; settings: Mus musculus; 100 mg/kg oral, 1 h before 2 mg/kg intravenous adrenaline; mice; read-out: TEST D ANTI-ADRENALINE (animals surviving 15 min later)
Experimental: D. Protection against a lethal dose of adrenaline
Groups of 10 .male. swiss mice (25±3 g) were pretreated orally with compounds (100 mg/kg) suspended in carboxymethyl cellulose 1 h before receiving an intraveneous injection of 2 mg/kg adrenaline. The number of animals surviving 15 min later was noted and expressed as a percentage.

[4] = system: histamine H1-receptor; assay: Antihistamine activity in anaesthetized rats (vasodepressor responses to histamine); type: in vivo, rat; settings: 0.3 mg/kg i.v.; pentobarbitone anaesthetized rats
Experimental: B. Antihistamine activity in anaesthetized rats
Test compounds were administered to pentobarbitone anaesthetized rats at 0.3 mg/kg i.v. following stable, submaximal, vasodepressor responses to histamine.

[5] = in vivo; settings: mouse, oral, mice, 48 hour period, unit from method b50, read-out: TEST E ACUTE TOXICITY (approximate LD50)
Experimental: Acute toxicity was assessed in groups of 3 mice given the test compounds suspended in 1% carboxymethylcellulose at 30, 100, 300 and 1000 mg/kg orally.

[6] = 0.3 mg/kg oral, 1 hour before 5 minute challenge of nebulized histamine, groups of 5

SMILES | TEST A RAT HINDQUARTERS % Recovery [1] [%] | TEST C ANT[…] (protection) [2, 6] | H1-histamine receptor antagonist properties, orally against histamine aerosol ([2]; oral) | responders at 100 mg/kg [3] [%] | TEST A RAT HINDQUARTERS % Inhibition [1] [%] | TEST B ANTIHISTAMINE IN RAT (inhibition of the histamine response) [4] | LD50 at 48 h [5] [mg/kg] | duration of anti-vasoconstrictor effects, compared with terfenadine and cinnarizine [1] | TEST C ANTIHISTAMINE AEROSOL (protection) [2, 6]
CC(C)(C)c1ccc(C(=O)CCCN2CCC(OC(c3ccccc3)c3ccccc3)CC2)cc1 [Compound 1, 4-diphenylmethoxy-1-[3-(4-tert-butylbenzoyl)propyl]-piperidine] | 56 | +++ (>50% protection) | extremely potent | 50 |  |  |  |  | 
CC(C)c1ccc(C(=O)CCCN2CCC(OC(c3ccccc3)c3ccccc3)CC2)cc1 [Compound 2, 4-diphenylmethoxy-1-[3-(4-isopropylbenzoyl)propyl]-piperidine] | 50 |  |  | 50 | 59 | +++ (50-75%) | > 1000 |  | 
CCc1ccc(C(=O)CCCN2CCC(OC(c3ccccc3)c3ccccc3)CC2)cc1 [Compound 3, 4-diphenylmethoxy-1-[3-(4-ethylbenzoyl)propyl]-piperidine] | 50 |  |  | 20 | 65 | +++ (50-75%) |  | much longer lasting | 
O=C(CCCN1CCC(OC(c2ccccc2)c2ccccc2)CC1)c1ccc(CC2CC2)cc1 [Compound 4, 4-diphenylmethoxy-1-[3-(4-cyclopropylmethylbenzoyl)propyl]-piperidine] | 40 |  |  | 40 | 75 | ++ (25-50%) |  | much longer lasting | 
CC(C)(C)c1ccc(C(=O)CCCN2CCC(OC(c3ccccc3)c3cccs3)CC2)cc1 (stereo not drawn) [Compound 5, 4-[α-(2-thienyl)benzyloxy]-1-[3-(4-tert-butylbenzoyl)propyl]-piperidine] | 40 |  |  |  | 65 | +++ (50-75%) |  | much longer lasting | 
OC(CCCN1CCC(OC(c2ccccc2)c2ccccc2)CC1)c1ccc(C2CCCCC2)cc1 (stereo not drawn) [Compound 6, 4-diphenylmethoxy-α-(4-cyclohexylphenyl)-1-piperidinebutanol] | 55 |  |  | 20 | 57 | ++ (25-50%) |  |  | 
CC(C)(C)c1ccc(C(=O)CCCN2CCC(OC(c3ccc(F)cc3)c3ccc(F)cc3)CC2)cc1 [Compound 7, 4-di(4-fluorophenyl)methoxy-1-[3-(4-tert-butylbenzoyl)propyl]-piperidine] | 13 |  |  | 40 | 62 | +++ (50-75%) |  | much longer lasting | 
CC(C)(C)c1ccc(C(O)CCCN2CCC(OC(c3ccccc3)c3ccccc3)CC2)cc1 (stereo not drawn) [Compound 8, 4-diphenylmethoxy-α-(4-tert-butylphenyl)-1-piperidinebutanol] | 58 |  |  | 60 | 69 | ++ (25-50%) |  |  | ++ (25-50%)
CC(C)(C)c1ccc(C(O)CCCN2CCC(C(O)(c3ccccc3)c3ccccc3)CC2)cc1 (stereo not drawn) [TERFENADINE, α-[4-(1,1-dimethylethyl)phenyl]-4-(hydroxydiphenylmethyl)-1-piperidinebutanol, reference compound] | 100 |  |  | 20 | 44 |  | > 1000 |  | + (10-25%)
